Assay results taken from ChEMBL document CHEMBL1130624, “In vitro inhibitory effects of DNA topoisomerase II by fernane-type triterpenoids isolated from a Euphorbia genus” (Bioorg Med Chem Lett, 1998).
Calls of active or inactive are those of the source. The calls are words filed in the database; no cut-off is given here.

Tests used:
Type in all cases: protein assay
[1] = target: T1, DNA topoisomerase II (Homo sapiens) (UniProt P11388+Q02880); test: Compound was tested in vitro for inhibitory effect on DNA topoisomerase II activity at a concentration of 3.2 uM; No inhibition
[2] = target: T1, DNA topoisomerase II (Homo sapiens); test: Compound was tested in vitro for inhibitory effect on DNA topoisomerase II activity at a concentration of 12.5 uM; No inhibition
[3] = target: T1, DNA topoisomerase II (Homo sapiens); test: Compound was tested in vitro for inhibitory effect on DNA topoisomerase II activity at a concentration of 6.3 uM; No inhibition
[4] = target: T1, DNA topoisomerase II (Homo sapiens); test: Compound was tested in vitro for inhibitory effect on DNA topoisomerase II activity at a concentration of 25 uM; No inhibition
[5] = target: T1, DNA topoisomerase II (Homo sapiens); test: Compound was tested in vitro for inhibitory effect on DNA topoisomerase II activity at a concentration of 50 uM; Slight inhibition
[6] = target: T1, DNA topoisomerase II (Homo sapiens); test: Compound was tested in vitro for inhibitory effect on DNA topoisomerase II activity at a concentration of 100 uM; Evidence inhibition
[7] = target: T1, DNA topoisomerase II (Homo sapiens); test: Compound was tested in vitro for inhibitory effect on DNA topoisomerase II activity at a concentration of 100 uM; No inhibition
[8] = target: T1, DNA topoisomerase II (Homo sapiens); test: Compound was tested in vitro for inhibitory effect on DNA topoisomerase II activity at a concentration of 50 uM; […]
[9] = target: T1, DNA topoisomerase II (Homo sapiens); test: Compound was tested in vitro for inhibitory effect on DNA topoisomerase II activity at a concentration of 12.5 uM; Evidence inhibition
[10] = target: T1, DNA topoisomerase II (Homo sapiens); test: Compound was tested in vitro for inhibitory effect on DNA topoisomerase II activity at a concentration of 6.3 uM; Slight inhibition
[11] = target: T1, DNA topoisomerase II (Homo sapiens); test: Compound was tested in vitro for inhibitory effect on DNA topoisomerase II activity at a concentration of 25 uM; […]
[12] = target: T1, DNA topoisomerase II (Homo sapiens); test: Compound was tested in vitro for inhibitory effect on DNA topoisomerase II activity at a concentration of 100 uM; […]

In the case of `C=C(C)[C@@H]1CC[C@@H]2C(=CC[C@@]3(C)[C@@H]4CC[C@H](C(C)C)[C@@]4(C)CC[C@]23C)[C@@]1(C)CCC(=O)OCc1ccccc1`, the Activity [1] was “inactive”, the Activity [2] was “inactive” and the Activity [3] was “inactive”. For the same compound, the Activity [4] was “inactive”, the Activity [5] was “Slight inhibition” and the Activity [6] was “Evidence inhibition”.
For `CC(C)[C@H]1CC[C@@H]2[C@]1(C)CC[C@]1(C)C3=C([C@H](O)C[C@@]21C)[C@@]1(C)CC[C@H](O)C(C)(C)C1CC3=O` (some centres undefined), the Activity [7] was “inactive”.
`CC(C)[C@H]1CC[C@@H]2[C@]1(C)CC[C@]1(C)C3=C(CC[C@@]21C)[C@@]1(C)CC[C@H](O)C(C)(C)C1CC3` (some centres undefined) was tested, and the Activity [7] was “inactive”.
With `CC(C)[C@H]1CC[C@@H]2[C@]1(C)CC[C@]1(C)C3=C(C(=O)C[C@@]21C)[C@@]1(C)CC[C@H](O)C(C)(C)C1C[C@@H]3O` (some centres undefined) the Activity [7] was “inactive”.
With `C=C(C)[C@@H]1CC[C@@H]2C(=CC[C@@]3(C)[C@@H]4CC[C@H](C(C)C)[C@@]4(C)CC[C@]23C)[C@@]1(C)CCCO` the Activity [8] was “Slight inhibition”, the Activity [1] was “inactive” and the Activity [9] was “Evidence inhibition”. The Activity [10] was “Slight inhibition”, the Activity [11] was “Slight inhibition” and the Activity [12] was “Slight inhibition”.
For `CC(C)[C@H]1CC[C@@H]2[C@]1(C)CC[C@]1(C)C3=C(C(=O)C[C@@]21C)[C@@]1(C)CC[C@H](O)C(C)(C)C1CC3=O` (some centres undefined), the Activity [7] was “inactive”.
With `C=C(C)[C@@H]1CC[C@@H]2C(=CC[C@@]3(C)[C@@H]4CC[C@H](C(C)C)[C@@]4(C)CC[C@]23C)[C@@]1(C)CCC(=O)OC` the Activity [7] was “inactive”.
`C=C(C)[C@@H]1CC[C@@H]2C(=CC[C@@]3(C)[C@@H]4CC[C@H](C(C)C)[C@@]4(C)CC[C@]23C)[C@@]1(C)CCC(=O)O` was tested, and the Activity [8] was “Slight inhibition”, the Activity [1] was “inactive” and the Activity [9] was “Evidence inhibition”. The Activity [10] was “Slight inhibition”, the Activity [11] was “Slight inhibition” and the Activity [12] was “Slight inhibition”.
`COc1cc([C@@H]2c3cc4c(cc3[C@@H](O[C@@H]3O[C@@H]5CO[C@@H](C)O[C@H]5[C@H](O)[C@H]3O)[C@H]3COC(=O)[C@H]23)OCO4)cc(OC)c1O` was tested, and the Activity [1] was “inactive”, the Activity [2] was “inactive” and the Activity [3] was “inactive”. For the same compound, the Activity [4] was “inactive”, the Activity [5] was “Slight inhibition” and the Activity [6] was “Evidence inhibition”.
